The values below come from patent US20140147397A1, “STABLE AMORPHOUS SOLID FORM OF A TRIAZINE DERIVATIVE AND THE CORRESPONDING MANUFACTURING PROCESS” (3V SIGMA S.P.A., priority 2012, published 2014).

What all share (format): physicochemical
The nature of series [1]: Dissolution rate test in caprylic/capric triglyceride. To be noted: 4.0 g powder in 96.0 g caprylic/capric triglyceride, stirring, 25° C., visual inspection. As to the method: Description of dissolution rate test. 4.0 g of powder was dispersed under stirring in 96.0 g of caprylic/capric triglyceride solvent at 25° C. The total dissolution time was measured, with visual inspection, noting the time of complete disappearance of any heterogeneity in the form of particles or opalescence in the solution.

Series [2] can be described thus: Dissolution rate test in octyl dodecanol. To be noted: 4.0 g powder in 96.0 g octyl dodecanol, stirring, 25° C., visual inspection. The method, then:
Description of dissolution rate test. 4.0 g of powder was dispersed under stirring in 96.0 g of octyl dodecanol solvent at 25° C. The total dissolution time was measured, with visual inspection, noting the time of complete disappearance of any heterogeneity in the form of particles or opalescence in the solution.

Series [3] is described as follows: Dissolution rate test in ethylhexyl stearate. To be noted: 4.0 g powder in 96.0 g ethylhexyl stearate, stirring, 25° C., visual inspection. As to the method:
Description of dissolution rate test. 4.0 g of powder was dispersed under stirring in 96.0 g of ethylhexyl stearate solvent at 25° C. The total dissolution time was measured, with visual inspection, noting the time of complete disappearance of any heterogeneity in the form of particles or opalescence in the solution.

Series [4] can be described thus: Stability of the amorphous solid form by DSC. To be noted: for solid form stability by DSC: DSC technique. The method, then: Samples 1C and 1A were characterised by the differential scanning calorimetry (DSC) technique. […] The amorphous solid sample 1A according to the present invention presented a first exothermic transition (corresponding to a formation of crystalline form) at temperatures of between 50 and 90° C., and subsequently at 128° C., the endothermic transition corresponding to melting of the crystalline form that formed at lower temperatures.
Sample 1A was stored for 12 months at room temperature and subjected to a second DSC measurement. Its appearance was still that of a white powder.

In the case of `CCCCC(CC)COC(=O)c1ccc(Nc2nc(Nc3ccc(C(=O)OCC(CC)CCCC)cc3)nc(Nc3ccc(C(=O)OCC(CC)CCCC)cc3)n2)cc1` (stereo not drawn) [Sample 1C, reference compound], the dissolution time entry in series [1] is “over 90 minutes”; in series [2], “over 420 minutes (insoluble-opaque white dispersion)”; in series [3], “over 420 minutes (opaque white dispersion)”.
Consider `CCCCC(CC)COC(=O)c1ccc(Nc2nc(Nc3ccc(C(=O)OCC(CC)CCCC)cc3)nc(Nc3ccc(C(=O)OCC(CC)CCCC)cc3)n2)cc1` (stereo not drawn) [Sample 1A], for which, in series [4] (stored for 12 months at room temperature, second DSC measurement), the “DSC curve after storage (stability of amorphous form)” value is “identical to the curve obtained a year earlier”. Moreover, the dissolution time in series [1] was 15 min; in series [2], 90 min; in series [3], 40 min.
For the molecule `CCCCC(CC)COC(=O)c1ccc(Nc2nc(Nc3ccc(C(=O)OCC(CC)CCCC)cc3)nc(Nc3ccc(C(=O)OCC(CC)CCCC)cc3)n2)cc1` (stereo not drawn) [Sample 2A], the “solid form stability by DSC” value in series [4] is “stable amorphous form”. In addition, the dissolution time in series [1] was 15 min.
Turning to `CCCCC(CC)COC(=O)c1ccc(Nc2nc(Nc3ccc(C(=O)OCC(CC)CCCC)cc3)nc(Nc3ccc(C(=O)OCC(CC)CCCC)cc3)n2)cc1` (stereo not drawn) [Sample 3A], the “solid form stability by DSC” value in series [4] is “stable amorphous form”. Further, in series [1], the dissolution time came out at 15 min.
With `CCCCC(CC)COC(=O)c1ccc(Nc2nc(Nc3ccc(C(=O)OCC(CC)CCCC)cc3)nc(Nc3ccc(C(=O)OCC(CC)CCCC)cc3)n2)cc1` (stereo not drawn) [Sample 2C, reference compound], the dissolution time entry in series [1] is recorded as “over 90 minutes”.
